The test system of experiment [1] is Peripheral Neuropathy in a Mouse Caused by Oxaliplatin. As to the kind of experiment: Von Frey test (0.16 g filament), peripheral neuropathy caused by oxaliplatin. To be noted: 6 mg/kg oxaliplatin + 100 mg/kg orally daily from Day 6 (therapy). It counts as in vivo, Balb/c mice. The text has this: Six to seven-week-old female Balb/c mice were used for the tests as with Example 1. All the mice were acclimated for seven days after arrival. Then, the mice were grouped into the following four groups: a control group, a group receiving oxaliplatin, a group receiving D-threitol, and a group receiving oxaliplatin and D-threitol (a group receiving oxaliplatin+D-threitol). Each group consisted of five mice.
On Day 8 of acclimation, the mice in the group receiving oxaliplatin and the group receiving oxaliplatin+D-threitol were intraperitoneally administered with oxaliplatin at a dose of 6 mg/kg. This day was designated as the first day of the administration (Day 0). Thereafter, these mice were intraperitoneally administered with oxaliplatin at a daily dose of 6 mg/kg on Day 7 and Day 14.
The mice in the group receiving D-threitol and the group receiving oxaliplatin+D-threitol were orally administered with D-threitol at a dose of 5 mg/kg daily from Day 0.
The mice in the four groups described in (1) of the present example (Example 3) were placed in a cage, and the avoidance response frequency (score) was measured by pressing a filament with a bending force of 0.16 g against the back of the hind paw.
On Day 8 of acclimation, the mice in the group receiving oxaliplatin and the group receiving oxaliplatin+D-threitol were intraperitoneally administered with oxaliplatin at a dose of 6 mg/kg. This day was designated as the first day of the administration (Day 0). Thereafter, these mice were intraperitoneally administered with oxaliplatin at the same dose on Day 7 and Day 14 for a total of 3 doses.
The mice in the group receiving 100 mg/kg D-threitol were orally administered with D-threitol at a dose of 100 mg/kg daily from Day 0. The mice in the group receiving oxaliplatin+100 mg/kg D-threitol were orally administered with D-threitol at a dose of 100 mg/kg daily from Day 6 of administration.
For the mice in the four groups described in (1) of the present example (Example 4), the avoidance response frequency (score) was measured by pressing a filament with a bending force of 0.16 g against the back of the hind paw.
Six to seven-week-old female Balb/c mice were used for the tests as with Example 1. All the mice were acclimated for seven days after arrival. Then, the mice were grouped into the following four groups: a control group, a group receiving oxaliplatin, a group receiving L-talitol, and a group receiving oxaliplatin and L-talitol (a group receiving oxaliplatin+L-talitol). Each group consisted of five mice. […]
The mice in the four groups described in (1) of the present example (Example 5) were placed in a cage, and the avoidance response frequency (score) was measured by pressing a filament with a bending force of 0.16 g against the back of the hind paw. […]

Experiment [2] deals with Peripheral Neuropathy in a Mouse Caused by Bortezomib. It counts as in vivo, Balb/c mice. To be noted: 1 mg/kg bortezomib + 100 mg/kg orally daily from Day 6 (therapy); from Day 12 onwards. An excerpt: Six to seven-week-old female Balb/c mice were used for the tests. All the mice were acclimated for seven days after arrival. Then, the mice were grouped into the following four groups: a control group, a group receiving bortezomib, a group receiving xylitol, and a group receiving bortezomib and xylitol (a group receiving bortezomib+xylitol). Each group consisted of five mice.
On Day 8 of acclimation, the mice in the group receiving bortezomib and the group receiving bortezomib+xylitol were intraperitoneally administered with bortezomib at a dose of 1 mg/kg. This day was designated as Day 0 of administration. Thereafter, these mice were intraperitoneally administered with bortezomib at a daily dose of 1 mg/kg on Day 7 and Day 14.
The mice in the group receiving xylitol and the group receiving bortezomib+xylitol were orally administered with xylitol at a dose of 5 mg/kg daily from Day 0.
The mice in the four groups described in (10) of the present example (Example 1) were placed in a cage, and the avoidance response frequency (score) was measured by pressing a filament with a bending force of 0.16 g against the back of the hind paw.
Six to seven-week-old female Balb/c mice were used for the tests as with Example 1. All the mice were acclimated for seven days after arrival. Then, the mice were grouped into the following four groups: a control group, a group receiving bortezomib, a group receiving xylitol, and a group receiving bortezomib and xylitol (a group receiving bortezomib+xylitol). Each group consisted of five mice. […]
For the mice in the four groups described in (12) of the present example (Example 2), the avoidance response frequency (score) was measured by pressing a filament with a bending force of 0.16 g against the back of the hind paw. […]
The mice in the four groups described in (10) of the present example (Example 3) were placed in a cage, and the avoidance response frequency (score) was measured by pressing a filament with a bending force of 0.16 g against the back of the hind paw. […]

As to `OC[C@@H](O)[C@H](O)CO` [D-threitol], the avoidance response score result in experiment [1] (from Day 15 onwards) is “maintained a score clearly lower than that of the group receiving oxaliplatin”; in experiment [2], “maintained a score clearly lower than that of the group receiving bortezomib”.
Consider `OC[C@H](O)[C@H](O)[C@H](O)[C@@H](O)CO` [L-talitol], for which the avoidance response score entry in experiment [1] (from Day 12 onwards) is reported as “maintained a score clearly lower than that of the group receiving oxaliplatin”; in experiment [2], “maintained a score clearly lower than that of the group receiving bortezomib”.
With `OC[C@@H](O)[C@H](O)[C@@H](O)CO` [xylitol], the avoidance response score result in experiment [1] (from Day 12 onwards) is recorded as “maintained a score clearly lower than that of the group receiving oxaliplatin”; in experiment [2], “maintained a score clearly lower than that of the group receiving bortezomib”.

These data come from patent publication US20240099989A1, “AGENT FOR PREVENTING OR IMPROVING PERIPHERAL NEUROPATHY” (KINKI UNIVERSITY, priority 2021, published 2024).
